Calls of active or inactive are those of the source.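 The calls were made as follows: active = mean IC50 under 10 µM against uracil DNA glycosylase, used as a counter screen; inactive = the rest.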
These molecules were tested against Uracil-DNA glycosylase (Escherichia coli (strain K12)) (UniProt P12295) (assay: uracil-DNA glycosylase cleavage inhibition – biochemical, UDG counterscreen, counter-screen for APOBEC3G deaminase inhibitor project, SAR follow-up (AID 602135)). Settings: FAM/TAMRA oligo fluorescence.
Sequence of Uracil-DNA glycosylase (Escherichia coli (strain K12)) (P12295 whole entry, looked up): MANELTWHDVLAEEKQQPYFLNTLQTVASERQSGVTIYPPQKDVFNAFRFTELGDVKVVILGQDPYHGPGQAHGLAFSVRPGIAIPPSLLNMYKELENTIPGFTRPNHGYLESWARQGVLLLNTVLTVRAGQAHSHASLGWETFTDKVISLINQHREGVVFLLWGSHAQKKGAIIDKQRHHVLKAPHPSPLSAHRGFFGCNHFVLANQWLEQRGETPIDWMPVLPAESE
`CCC(=O)Nc1cccc(-c2nnc(SCC(=O)NCc3ccco3)n2C)c1` was tested, and the IC50 was > 99 µM (inactive).
With `Cc1ccc2[nH]cc(/C=C/c3cc[n+](C)cc3)c2c1` the IC50 was > 99 µM (inactive).
With `O=C1NC(=S)NC(=O)C1=Cc1ccc2c(c1)CCN2CCCCl` the IC50 was > 99 µM (inactive).
In the case of `CC1(C)Oc2ccc3ccc(=O)oc3c2/C(=C/NCCO)C1=O`, the IC50 is reported as > 99 µM (inactive).
For `CCOC(=O)c1ccc2c(c1)N(C)C(=O)c1ccccc1S2`, the IC50 was > 99 µM (inactive).
`S=c1[nH]nc(NCCc2ccccc2)s1` was tested, and the IC50 was > 99 µM (inactive).
In the case of `O=C(NCc1ccc2c(c1)OCO2)c1cc2ncc(Br)cn2n1`, the IC50 is reported as > 99 µM (inactive).
`COc1ccc(-c2nc(=S)[nH][nH]2)cc1` was tested, and the IC50 was > 99 µM (inactive).
For `S=c1[nH]nc2c3c4c(sc3ncn12)CCCC4`, the IC50 was > 99 µM (inactive).
With `Cc1ccc2c(c1C)NC(C(=O)O)C1CC=CC21` (stereo not given) the IC50 was > 99 µM (inactive).
For `Cc1ccc[n+](CC(=O)Nc2cc(C(F)(F)F)ccc2N2CCOCC2)c1`, the IC50 was > 99 µM (inactive).
For `CCCCCn1c(=O)c2ccccc2n2c(=S)[nH]nc12`, the IC50 was > 99 µM (inactive).
With `CCn1ncc(-c2ccnc3cc(C(=O)O)nn23)c1C` the IC50 was > 99 µM (inactive).
In the case of `O=C(NCc1ccc2c(c1)OCO2)c1nn2cccnc2c1Cl`, the IC50 is reported as > 99 µM (inactive).
`C[n+]1cccc(C(=O)Nc2ccccc2)c1` was tested, and the IC50 was > 99 µM (inactive).
In the case of `CCCCn1c(=O)c2ccccc2n2c(=S)[nH]nc12`, the IC50 is reported as > 99 µM (inactive).
`Cc1ccc(C)n1Cc1ccc(C(=O)O)cc1` was tested, and the IC50 was > 99 µM (inactive).
`Cc1ccc(C=Nn2c(-c3ccco3)n[nH]c2=S)s1` was tested, and the IC50 was > 99 µM (inactive).
With `COc1cc(C=Nn2c(-c3n[nH]c4c3CCC4)n[nH]c2=S)ccc1O` the IC50 was > 99 µM (inactive).
`CC(=O)c1ccc2c(c1)C1C=CCC1C(C(=O)O)N2` (stereo not given) was tested, and the IC50 was > 99 µM (inactive).
With `Cc1ccc(-c2csc3n[nH]c(=S)n23)cc1` the IC50 was > 99 µM (inactive).
In the case of `CC(C)(C)NC(=O)CSc1nc2ccc(NC(=O)CSc3nnc(N)s3)cc2s1`, the IC50 is reported as > 99 µM (inactive).
With `Nn1c(-c2cccc(Br)c2)n[nH]c1=S` the IC50 was > 99 µM (inactive).
With `Cn1nc([N+](=O)[O-])nc1S(C)(=O)=O` the IC50 was > 99 µM (inactive).
With `CC(C(=O)O)N1C(=O)/C(=C/C=C/c2ccco2)SC1=S` (stereo not given) the IC50 was > 99 µM (inactive).

— PubChem BioAssay AID602135 (Sanford-Burnham Center for Chemical Genomics, 2011)
